From patent US20250134858A1, “COMPOSITIONS AND METHODS FOR TREATMENT OF NAFLD AND NASH AND RELATED DYSLIPIDEMIAS” (EpicentRx, Inc., priority 2022, published 2025)

Key:
Assay type in all cases: in vivo, rat
[1] = tested on: Sprague-Dawley rats fed high-fat atherogenic diet (HFD); test: Relative LDL, HDL, TG and TC levels in rats fed a high-fat atherogenic diet
Procedure: (§1) Sprague-Dawley rats (6-weeks-old male weighing about 180 grams) were randomly divided into three groups. The first group of the rats were subjected to a normal diet (ND) for a time period of 12 weeks. The second and the third group of the rats were subjected to a high-fat atherogenic diet (HFD, 40 kcal % fat, 1.25% cholesterol, 0.5% sodium cholate) for the time period of 12 weeks. The third HFD group of the rats were treated with about 5 mg/kg of RRx-001 every other week for the last 8 weeks before characterization (“HFD-RRx-001”). Several markers of inflammation and steatosis were evaluated.

[2] = tested on: Sprague-Dawley rats fed high-fat atherogenic diet (HFD); test: NASH markers in HFD rats: hepatic TG, hepatic TC, steatosis score, serum ALT and AST; details: about 5 mg/kg every other week for last 8 of 12 weeks
Procedure: as §1
(§2) In a trial that tested for markers related to NASH, every other week administrations of RRx-001 reduced hepatic steatosis scores, serum ALT and AST levels, and hepatic levels of cholesterol and triglycerides in rats fed the HFD.

[3] = tested on: NLRP3 inflammasome; test: Serum NLRP3, IL-1β and caspase-1 levels (ELISA) in HFD rats; details: about 5 mg/kg every other week for last 8 of 12 weeks
Procedure: as §1, §2

O=C(CBr)N1CC([N+](=O)[O-])([N+](=O)[O-])C1 [RRx-001, 2-bromo-1-(3,3-dinitroazetidin-1-yl)ethan-1-one]
relative amount of LDL ([1]; about 5 mg/kg RRx-001 every other week for last 8 of 12 weeks, ND normalized to 1.0, HFD alone approximately 6, FIG. 1A): approximately 4 times the LDL amount of the ND rats | relative amount of HDL ([1]; about 5 mg/kg every other week for last 8 of 12 weeks, ND normalized to 1, HFD alone approximately 0.2, FIG. 1B): approximately 0.4 relative to the ND rats | relative amount of total cholesterol (TC) ([1]; about 5 mg/kg every other week for last 8 of 12 weeks, ND normalized to 1, HFD alone approximately 2.7, FIG. 1D): approximately 1.8 times relative to the ND rats | relative amount of triglycerides (TG) ([1]; about 5 mg/kg every other week for last 8 of 12 weeks, ND normalized to 1, HFD alone approximately 6.2, FIG. 1C): approximately 4.4 relative to the ND rats | relative amount of hepatic TC ([2]; ND normalized to 1, HFD alone approximately 4.3, FIG. 3B): approximately 3.8 times relative to the ND rats | relative amount of hepatic TGs ([2]; ND normalized to 1, HFD alone approximately 8.2, FIG. 3A): approximately 5.7 times relative to the amounts of the ND rats | relative amount of IL-1β ([3]; ND normalized to 1, HFD alone approximately 1.7, FIG. 5B): approximately 1.2 times relative to the amount in the ND rats | relative amount of serum NLRP3 ([3]; ND normalized to 1, HFD alone approximately 1.75, FIG. 5A): approximately 1.3 times relative to the rats that were fed the ND | relative amount of caspase-1 ([3]; ND normalized to 1, HFD alone approximately 2.0, FIG. 5C): approximately 1.3 times relative to the rats that were fed the ND
